Tests used:
Trypsin [1] = target: T1, Trypsin (Sus scrofa, UniProt P00761); test: (§1) Inhibition of pig pancreas trypsin type IX-S using Boc-Gln-Ala-Arg-MCA substrate by 7-amino-4-methylcoumarin release based spectrofluorometry
Trypsin (Sus scrofa) = Trypsin (Sus scrofa) (UniProt P00761); test: as §1; conditions: TDE = time-dependent effect
Trypsin [2] = target: T1, Trypsin; test: Inhibition of pig pancreas trypsin type IX-S

T1 sequence (P00761 whole entry): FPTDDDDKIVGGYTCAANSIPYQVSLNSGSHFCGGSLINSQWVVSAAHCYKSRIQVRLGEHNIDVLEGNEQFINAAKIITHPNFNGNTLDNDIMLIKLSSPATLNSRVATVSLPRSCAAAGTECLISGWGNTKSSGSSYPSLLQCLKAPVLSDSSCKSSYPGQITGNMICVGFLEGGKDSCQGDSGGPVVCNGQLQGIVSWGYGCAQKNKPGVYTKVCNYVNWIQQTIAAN
Chain of Trypsin (Sus scrofa) (P00761 whole entry): as above

IC50 (Trypsin [1]) | inhibition (Trypsin (Sus scrofa)) | IC50 (Trypsin [2]) | SMILES
< 100 nM | – | – | C[C@H]1C[C@@H](C(=O)NC(C=O)CCCNC(=N)N)N(C(=O)[C@@H](CCc2ccc(O)cc2)NC(=O)[C@H](O)Cc2ccc(O)cc2)C1 (some centres not stated) [SPUMIGIN E]
350 nM | tde | – | CC[C@H](C)[C@H](NC(=O)C(O)CCc1ccc(O)cc1)C(=O)N[C@H](C=O)CCCNC(=N)N (some centres not stated)
500 nM | – | > 200 nM | CC(=O)N[C@@H](CC(C)C)C(=O)N[C@@H](CC(C)C)C(=O)N[C@H](C=O)CCCNC(=N)N [LEUPEPTIN]
55000 nM | tde | – | CC[C@H](C)[C@H](NC(=O)C(O)CCc1ccc(O)cc1)C(=O)N[C@H](CO)CCCNC(=N)N (some centres not stated)
